Data on 47 substances can be found in patent US20230190924A1, “ANTIGEN OF ALLERGY AND EPITOPE THEREOF” (HOYU CO., LTD., priority 2017, published 2023).

The experiment concerns IgE antibodies from patients. Nature of the experiment: Epitope mapping (2) overlapping (10-amino-acid peptides) and (3) alanine scanning on peptide arrays. It counts as binding, human. The note with it: for binding to IgE antibodies from patients, sequence comprising a region amino-terminally adjacent to the epitope / binding to IgE antibodies from patients, sequence comprising a region carboxy-terminally adjacent to the epitope: overlapping peptides with flanking sequence; for region within the epitope important for binding to IgE antibodies from patients: procedures (B) overlapping and (C) alanine scanning. The method, boiled down: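 Overlapping 10-mer peptides shifted by one residue, and alanine-substituted peptides, spotted on cellulose and probed with patient and non-egg-allergic sera; IgE binding read by anti-human IgE-HRP chemiluminescence. Signal expressed relative to parent sequence and graded in bands from <20% (no binding) to ≥90% (retained binding).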

Turning to “SEQ ID NO: 516: sequence comprising a region amino-terminally adjacent to epitope 23 (PCRGACKLH; epitope)”, the “binding to IgE antibodies from patients, sequence comprising a region amino-terminally adjacent to the epitope” value was “binding to IgE antibodies from patients”.
As for “SEQ ID NO: 517: sequence comprising a region amino-terminally adjacent to epitope 23 (APCRGACKLH; epitope)”, the “binding to IgE antibodies from patients, sequence comprising a region amino-terminally adjacent to the epitope” value is recorded as “binding to IgE antibodies from patients”.
For the substance “SEQ ID NO: 520: region in epitope 23 (ACKLHRSFVK; epitope)”, the “region within the epitope important for binding to IgE antibodies from patients” value (“region within the epitope important” for short) is “important for binding”.
Consider “SEQ ID NO: 522: region in epitope 23 (RSFVKLE; epitope)”, for which the “region within the epitope important” value is listed as “important for binding”.
In the case of “SEQ ID NO: 523: sequence comprising a region carboxy-terminally adjacent to epitope 23 (FVKLEKTVQL; epitope)”, the “binding to IgE antibodies from patients, sequence comprising a region carboxy-terminally adjacent to the epitope” value was “binding to IgE antibodies from patients”.
“SEQ ID NO: 528: region in epitope 26 (GLLIS; epitope)”: the “region within the epitope important” value is listed as “important for binding”.
As for “SEQ ID NO: 531: region in epitope 26 (GLLIS; epitope)”, the “region within the epitope important” value is “important for binding”.
Still for that read-out and setting: under “SEQ ID NO: 533: region in epitope 27 (ICGKYDAE; epitope)” stands “important for binding”.
Take “SEQ ID NO: 534: region in epitope 27 (GICGKYDAE; epitope)”: the “region within the epitope important” value is given as “important for binding”.
With “SEQ ID NO: 535: sequence comprising a region carboxy-terminally adjacent to epitope 27 (YDAEKKREY; epitope)”, the “binding to IgE antibodies from patients, sequence comprising a region carboxy-terminally adjacent to the epitope” value is recorded as “binding to IgE antibodies from patients”.
Regarding “SEQ ID NO: 539: region in epitope 27 (CGICGKYDA; epitope)”, the “region within the epitope important” value was “important for binding”.
“SEQ ID NO: 541: region in epitope 27 (ICGKYDAEKK; epitope)”: the “region within the epitope important” value is recorded as “important for binding”.
Turning to “SEQ ID NO: 542: sequence comprising a region carboxy-terminally adjacent to epitope 27 (YDAEKKRE; epitope)”, the “binding to IgE antibodies from patients, sequence comprising a region carboxy-terminally adjacent to the epitope” value is “binding to IgE antibodies from patients”.
On to “SEQ ID NO: 544: region in epitope 27 (YDAEKK; epitope)”, for which the “region within the epitope important” value is “important for binding”.
For “SEQ ID NO: 550: sequence comprising a region amino-terminally adjacent to epitope 30 (EDTCTGACK; epitope)”, the “binding to IgE antibodies from patients, sequence comprising a region amino-terminally adjacent to the epitope” value is recorded as “binding to IgE antibodies from patients”.
Consider “SEQ ID NO: 551: sequence comprising a region carboxy-terminally adjacent to epitope 30 (QRKFVKIE; epitope)”, for which the “binding to IgE antibodies from patients, sequence comprising a region carboxy-terminally adjacent to the epitope” value is given as “binding to IgE antibodies from patients”.
For “SEQ ID NO: 553: sequence comprising a region amino-terminally adjacent to epitope 33 (IVTLAEKYDL; epitope)”, the “binding to IgE antibodies from patients, sequence comprising a region amino-terminally adjacent to the epitope” value is recorded as “binding to IgE antibodies from patients”.
Consider “SEQ ID NO: 555: region in epitope 33 (AEKYDLKN; epitope)”, for which the “region within the epitope important” value is on record as “important for binding”.
For “SEQ ID NO: 556: sequence comprising a region carboxy-terminally adjacent to epitope 33 (NWAENLNQFI; epitope)”, the “binding to IgE antibodies from patients, sequence comprising a region carboxy-terminally adjacent to the epitope” value is reported as “binding to IgE antibodies from patients”.
On to “SEQ ID NO: 557: sequence comprising a region carboxy-terminally adjacent to epitope 33 (AENLNQFIET; epitope)”, for which the “binding to IgE antibodies from patients, sequence comprising a region carboxy-terminally adjacent to the epitope” value was “binding to IgE antibodies from patients”.
Consider “SEQ ID NO: 561: region in epitope 34 (DEPLN; epitope)”, for which the “region within the epitope important” value is “important for binding”.
Regarding “SEQ ID NO: 562: region in epitope 34 (DEPLNV; epitope)”, the “region within the epitope important” value is recorded as “important for binding”.
Take “SEQ ID NO: 565: sequence comprising a region amino-terminally adjacent to epitope 34 (QDGTKVKLY; epitope)”: the “binding to IgE antibodies from patients, sequence comprising a region amino-terminally adjacent to the epitope” value is given as “binding to IgE antibodies from patients”.
In the case of “SEQ ID NO: 569: region in epitope 34 (VKLYPEKDEP; epitope)”, the “region within the epitope important” value is listed as “important for binding”.
For the substance “SEQ ID NO: 571: region in epitope 34 (KDEPLNV; epitope)”, the “region within the epitope important” value is “important for binding”.
For the substance “SEQ ID NO: 573: region in epitope 34 (KDEP; epitope)”, the “region within the epitope important” value is “important for binding”.
Take “SEQ ID NO: 576: sequence comprising a region amino-terminally adjacent to epitope 35 (YQVSKRVS; epitope)”: the “binding to IgE antibodies from patients, sequence comprising a region amino-terminally adjacent to the epitope” value was “binding to IgE antibodies from patients”.
Take “SEQ ID NO: 577: sequence comprising a region carboxy-terminally adjacent to epitope 35 (LNPISAKVE; epitope)”: the “binding to IgE antibodies from patients, sequence comprising a region carboxy-terminally adjacent to the epitope” value is on record as “binding to IgE antibodies from patients”.
With “SEQ ID NO: 579: region in epitope 35 (VSKRVS; epitope)”, the “region within the epitope important” value is “important for binding”.
As for “SEQ ID NO: 581: region in epitope 35 (SVPGLNP; epitope)”, the “region within the epitope important” value was “important for binding”.
Consider “SEQ ID NO: 583: sequence comprising a region amino-terminally adjacent to epitope 36 (DIFELGLDG; epitope)”, for which the “binding to IgE antibodies from patients, sequence comprising a region amino-terminally adjacent to the epitope” value is recorded as “binding to IgE antibodies from patients”.
Regarding “SEQ ID NO: 584: sequence comprising a region carboxy-terminally adjacent to epitope 36 (EPTLEALFG; epitope)”, the “binding to IgE antibodies from patients, sequence comprising a region carboxy-terminally adjacent to the epitope” value is given as “binding to IgE antibodies from patients”.
On to “SEQ ID NO: 585: region in epitope 36 (GKGFE; epitope)”, for which the “region within the epitope important” value is “important for binding”.
The same measure, in the same setting: under “SEQ ID NO: 587: region in epitope 37 (SGIV; epitope)” stands “important for binding”.
On to “SEQ ID NO: 589: region in epitope 37 (IVTPGAKVAV; epitope)”, for which the “region within the epitope important” value was “important for binding”.
“SEQ ID NO: 592: region in epitope 37 (SGIVTPGAK; epitope)”: the “region within the epitope important” value is “important for binding”.
In the case of “SEQ ID NO: 594: region in epitope 37 (IVTPGAKVAV; epitope)”, the “region within the epitope important” value is given as “important for binding”.
With “SEQ ID NO: 595: sequence comprising a region carboxy-terminally adjacent to epitope 37 (AKVAVKLHQK; epitope)”, the “binding to IgE antibodies from patients, sequence comprising a region carboxy-terminally adjacent to the epitope” value is “binding to IgE antibodies from patients”.
With “SEQ ID NO: 598: region in epitope 37 (SGIVTPGA; epitope)”, the “region within the epitope important” value was “important for binding”.
In the case of “SEQ ID NO: 600: region in epitope 37 (IVTPGAKVAV; epitope)”, the “region within the epitope important” value is listed as “important for binding”.
For “SEQ ID NO: 602: region in epitope 37 (TPGAKVAV; epitope)”, the “region within the epitope important” value was “important for binding”.
With “SEQ ID NO: 604: sequence comprising a region amino-terminally adjacent to epitope 38 (LVNYSPTK; epitope)”, the “binding to IgE antibodies from patients, sequence comprising a region amino-terminally adjacent to the epitope” value was “binding to IgE antibodies from patients”.
Turning to “SEQ ID NO: 605: sequence comprising a region amino-terminally adjacent to epitope 38 (LVNYSPTKG; epitope)”, the “binding to IgE antibodies from patients, sequence comprising a region amino-terminally adjacent to the epitope” value is given as “binding to IgE antibodies from patients”.
As for “SEQ ID NO: 608: region in epitope 38 (PTKGYLQMSS; epitope)”, the “region within the epitope important” value was “important for binding”.
As for “SEQ ID NO: 609: sequence comprising a region carboxy-terminally adjacent to epitope 38 (LQMSSSV; epitope)”, the “binding to IgE antibodies from patients, sequence comprising a region carboxy-terminally adjacent to the epitope” value is on record as “binding to IgE antibodies from patients”.
Take “SEQ ID NO: 613: sequence comprising a region amino-terminally adjacent to epitope 39 (ANELLDR; epitope)”: the “binding to IgE antibodies from patients, sequence comprising a region amino-terminally adjacent to the epitope” value is given as “binding to IgE antibodies from patients”.
As to “SEQ ID NO: 616: region in epitope 39 (LLDRKVALT; epitope)”, the “region within the epitope important” value was “important for binding”.
